Measured values as given in patent publication US6682753B2, “Methods for promoting weight gain using GPE-related compounds” (NeuronZ Limited, priority 2001, dated 2004).

B1: BDNF: brain-derived neurotrophic factor (BDNF) (protein, UniProt P23560 19-247, looked up)
Neurotrophic factor BDNF …: APMKEANIRGQGGLAYPGVRTHGTLESVNGPKAGSRGLTSLADTFEHVIEELLDEDQKVRPNEENNKDADLYTSRVMLSSQVPLEPPLLFLLEEYKNYLDAANMSMRVRRHSDPARRGELSVCDSISEWVTAADKKTAVDMSGGTVTVLEKVPVSKGQLKQYFYETKCNPMGYTKEGCRGIDKRHWNSQCRTTQSYVRALTMDSKKRIGWRFIRIDTSCVCTLTIKRGR
B2: GDNF: glial-derived neurotrophic factor (GDNF) (protein, UniProt P39905 78-211, looked up)
Glial cell line-derived …: SPDKQMAVLPRRERNRQAAAANPENSRGKGRRGQRGKNRGCVLTAIHLNVTDLGLGYETKEELIFRYCSGSCDAAETTYDKILKNLSRNRRLVSDKVGQACCRPIAFDDDLSFLDDNLVYHILRKHSAKRCGCI

What was measured:
[1] = infused in the brain of adult rats after partial or full lesions (e.g. partial fimbria-fornix transection); cited from earlier work
[2] = Body weight gain over 14 days in rats after unilateral fimbria-fornix lesion with daily intracerebroventricular infusion; assay type: in vivo, male Wistar rats; settings: lesioned rats; daily icv infusion of 2 μL for 14 days: GPE 3 μg/day, IGF-I 20 μg/day, NGF 1 μg/day
From the text: A group of male Wistar rats weighing 174-193 g (University of Auckland, Animal Resources Unit) were divided randomly into the following groups: “control”, “sham”, “vehicle”, “GPE”, “IGF-I”, and “NGF”, depending on the treatment each animal was to undergo. “Control” animals were weighed at the first and last time points and were not treated or handled at any other time. “Sham” animals underwent a sham surgery of anesthesia, incision through the scalp skin, drill hole through the skull, bone wax to seal the drill hole, and sutures for the skin incision. They were then handled daily in mock infusions to mimic handling of animals that received lesions and intracerebroventricular infusions.
“Vehicle”, “GPE”, “IGF-I”, and “NGF” animals were anaesthetized with 75 mg/Kg sodium pentobarbital and positioned in a stereotaxic apparatus (Kopf Instruments, USA), and underwent unilateral fimbria-fomix lesions to lesion septal cholinergic neurons and chronic cannula implantation into the left lateral cerebral ventricle. Fomix-fimbria lesions were performed by transecting the fimbria-fornix projection using a specialized retractable wire Scouten knife (Kopf Instruments) designed to minimize tissue damage except at the required lesion site. Anaesthetized animals received an incision through their scalp skin and a small drill hole was made in the skull at the stereotaxic coordinates anterior-posterior (AP) axis−1.0 mm from the bregma and medial-lateral (ML) axis+2.5 mm from midline (left side), from an atlas of the rat brain (Paxinos et al. (1986), “The rat brain in stereotaxic coordinates”, Academic Press, London). The knife was lowered into the brain through the drill hole to the coordinate+6.0 mm ventral to the skull on the dorsal-ventral (DV) axis. The knife blade was then extended 2.5 mm toward midline at an angle of 30° caudal to the bregma. The knife, with blade extended, was then raised 4.5 mm dorsally to axotomize the fimbria-fomix fibres. The blade was then retracted, the knife lowered 4.5 mm to its original coordinate, and the process was repeated. […]

[3] = administered into the brain following transient ischemia to the forebrain, adult rats; cited from earlier work
[4] = Weight gain in human patient suffering from a head injury, central administration (Examples 2-4); assay type: in vivo; settings: 14 days
Protocol: GPE in a dose of 10 μg/Kg/day is administered via lateral cerebroventricular injection into the brain of a human patient suffering from a head injury to promote weight gain to normal levels. Alternatively, a GPE analog is administered. Treatment is commenced as soon as possible after the head injury and then for 14 days thereafter.
A GPE analog in a dose of 20 μg/Kg/day is administered via focal injection into the lateral cerebral ventricle of a human patient suffering from a head injury to promote weight gain to normal levels. Alternatively, GPE is administered. Treatment is commenced as soon as possible after the head injury and then for 14 days thereafter.
GPE in a dose of 5 μg/Kg/day is administered via a surgically inserted shunt into the lateral cerebral ventricle of a human patient suffering from a head injury to promote weight gain to normal levels. Alternatively, a GPE analog is administered. Treatment is commenced as soon as possible after the head injury and then for 14 days thereafter.

Row | Molecule | effect on body weight gain [1] | weight gain over the 14 days [2] | other results
1 | NGF: Nerve growth factor (NGF) | either decrease normal body weight gain or cause weight loss | no weight gain | –
2 | bFGF: basic fibroblast growth factor (bFGF) | either decrease normal body weight gain or cause weight loss | – | –
3 | IGF-I: insulin-like growth factor I (IGF-I) | – | minimal weight gain | effect on body weight [3]: cause weight gain
4 | NCC(=O)N1CCC[C@H]1C(=O)N[C@@H](CCC(=O)O)C(=O)O [GPE, glycyl-L-prolyl-L-glutamic acid] | – | the normally expected weight gain occurred | weight gain in patient ([4]; 5 μg/Kg/day via surgically inserted shunt into the lateral cerebral ventricle): Normal weight gain is promoted; weight gain in patient ([4]; 10 μg/Kg/day via lateral cerebroventricular injection): Normal weight gain is promoted; weight gain in patient ([4]; 20 μg/Kg/day via focal injection into the lateral cerebral ventricle): Normal weight gain is promoted
5 | B1 | either decrease normal body weight gain or cause weight loss | – | –
6 | B2 | either decrease normal body weight gain or cause weight loss | – | –
